Columns and labels:
[1] = test system: rat hepatocytes; assay: in vitro metabolism in rat hepatocytes in suspension, benzoic acid derivative formation by GC-MS; format: in vitro ADME; conditions: incubated with hepatocytes isolated from rats; substantially no = below the limit of detection, i.e. <1%
Source text: Decrease of Lilial™ and the compound released by the precursor of the present invention, and formation of the corresponding benzoic acid derivative may be analysed by GC-MS.
By “substantially no benzoic acid derivative” is meant that the concentration of said derivative is below the limit of detection, i.e. <1%. As such, the fragrance precursor releasing 3-(4-isobutyl-2-methylphenyl)propanal provides perfumers with an eminently suitable surrogate for the valuable yet problematic Lilial™.

[2] = test system: mice; conditions: mouse, in vivo; cited from earlier work
[3] = test system: guinea-pigs; conditions: guinea pig, in vivo; cited from earlier work
[4] = test system: primates; conditions: cited from earlier work

Row | SMILES | formation of the corresponding benzoic acid derivative [1] | toxic effects [2] | toxic effects [3] | toxic effects [4]
1 | Cc1cc(CC(C)C)ccc1CCC=O [3-(4-isobutyl-2-methylphenyl)propanal] | forms no, or substantially no, corresponding benzoic acid derivative | – | – | –
2 | CC(C=O)Cc1ccc(C(C)(C)C)cc1 (stereo not shown) [Lilial™, 3-(4-tert-butylphenyl)-2-methylpropanal] | – | No effects were found | No effects were found | No effects were found

Source: patent US10119097B2, “Organic compounds” (GIVAUDAN SA, priority 2014, dated 2018)
